Assays:
Z-138 cell line = assay: Z-138 Proliferation Assay (Cell Titer Glo, 5 days); format: cell-based; settings: Z-138 cells
From the text: RPMI/Glutamax medium, penicillin-streptomycin, heat inactivated fetal bovine serum were purchased from Life Technologies, Grand Island, N.Y., USA. V-bottom polypropylene 384-well plates were purchased from Greiner Bio-One, Monroe, N.C., USA. Cell culture 384-well white opaque plates were purchased from Perkin Elmer, Waltham, Mass., USA. Cell-Titer Glo® was purchased from Promega Corporation, Madison, Wis., USA. SpectraMax M5 plate reader was purchased from Molecular Devices LLC, Sunnyvale, Calif., USA.
A compound source plate was prepared by performing triplicate nine-point 3-fold serial dilutions in DMSO, beginning at 10 mM (final top concentration of compound in the assay was 20 μM and the DMSO was 0.2%). A 100 nL aliquot from the compound stock plate was added to its respective well in the cell plate. […] Luminescence was read in the SpectraMax M5 microplate reader. The concentration of compound inhibiting cell viability by 50% was determined using a 4-parametric fit of the normalized dose response curves.

[1] = test system: symmetric di-methyl arginine in Z-138 cells; assay: Z-138 Methylation Assay (In Cell Western for symmetric di-methyl arginine and DNA content); format: cell-based; settings: read-out: ICW EC50
From the text: [formula] [formula] Where top and bottom are the normally allowed to float, but may be fixed at 100 or 0 respectively in a 3-parameter fit. The Hill Coefficient normally allowed to float but may also be fixed at 1 in a 3-parameter fit. Y is the % inhibition and X is the compound concentration.
RPMI/Glutamax medium, penicillin-streptomycin, heat inactivated fetal bovine serum, and D-PBS were purchased from Life Technologies, Grand Island, N.Y., USA. Odyssey blocking buffer, 800 CW goat anti-rabbit IgG (H+L) antibody, and Licor Odyssey infrared scanner were purchased from Licor Biosciences, Lincoln, Nebr., USA. Symmetric di-methyl arginine antibody was purchased from EMD Millipore, Billerica, Mass., USA. 16% Paraformaldehyde was purchased from Electron Microscopy Sciences, Hatfield, Pa., USA. […]
First, the ratio for each well was determined by:
Each plate included fourteen control wells of DMSO only treatment (minimum inhibition) as well as fourteen control wells for maximum inhibition treated with 3 μM of a reference compound (Background wells). The average of the ratio values for each control type was calculated and used to determine the percent inhibition for each test well in the plate. […] Percent inhibition was determined and IC50 curves were generated using triplicate wells per concentration of compound.

`CN(C[C@H](O)CN1CCc2ccccc2C1)C(=O)c1cc(NC2CCOCC2)ncn1` [Compound 232] gave an EC50 (Z-138 cell line) of 1 to 10 µM and an EC50 [1] of 0.101 to 1 µM.

From US10980794B2, “PRMT5 inhibitors and uses thereof” (Epizyme, Inc., priority 2012, dated 2021)
